Laboratory results reported in patent US20240041856A1, “LIQUID APIXABAN FORMULATION IN SMALL DOSE VOLUME” (DAFECHEM LIMITED, priority 2020, published 2024).

Tests used:
[1] = Solubility of apixaban in propylene glycol based vehicles; assay type: physicochemical
Procedure: (§1) However, for achieving solutions of apixaban with concentration of more than 0.5 mg/mL in a vehicle comprising at least 35% (w/v) propylene glycol based on the total formulation, heating within the range of 25-90° C. is applied so to achieve full and quick solubilization of apixaban.
Concentrated solutions of apixaban are necessary in order to achieve low dosage volumes. The temperature of the mixture of apixaban and optionally co-solvents can be up to 90° C.

[2] = Stability of apixaban in propylene glycol on heating; assay type: physicochemical; details: temperature increase up to 90° C.
Procedure: as §1

## COc1ccc(-n2nc(C(N)=O)c3c2C(=O)N(c2ccc(N4CCCCC4=O)cc2)CC3)cc1 [Apixaban, 1-(4-methoxyphenyl)-7-oxo-6-[4-(2-oxopiperidin-1-yl)phenyl]-4,5,6,7-tetrahydro-1H-pyrazolo[3,4c]pyridine-3-carboxamide]
[1]; 0.25 mg/mL apixaban, vehicle with at least 35% (w/v) propylene glycol, room temperature
  Dissolution of apixaban in the vehicle: dissolves freely
[1]; dissolving at temperature up to 90° C. in at least 35% (w/v) of propylene glycol
  Most concentrated apixaban solutions prepared: up to 10 mg/mL
[2]
  Stability of apixaban in propylene glycol: stable
